The experiment addresses T1, GABA A α5 (α5β3γ2) (Homo sapiens, UniProt P18507+P31644).
T1 construct: expressed in transfected cells; host or cells: HEK293 (transiently transfected), membranes
Description: [3H]flumazenil competition binding assay, human GABA A α5 receptors in HEK293 cells. The conditions noted are these: competition for [3H]flumazenil (0.5 nM); HEK293 cells expressing human (transiently transfected) receptors; means of two determinations; read-out: hKi GABA A α5. How it is done:
Membrane Preparation and Binding Assay
The affinity of compounds at GABA A receptor subtypes was measured by competition for [3H]flumazenil (85 Ci/mmol; Roche) binding to HEK293 cells expressing rat (stably transfected) or human (transiently transfected) receptors of composition α1β3γ2, α2β3γ2, α3β3γ2 and α5β3γ2.
Cell pellets were suspended in Krebs-tris buffer (4.8 mM KCl, 1.2 mM CaCl2, 1.2 mM MgCl2, 120 mM NaCl, 15 mM Tris; pH 7.5; binding assay buffer), homogenized by polytron for ca. 20 sec on ice and centrifuged for 60 min at 4° C. (50000 g; Sorvall, rotor: SM24=20000 rpm). The cell pellets were resuspended in Krebs-tris buffer and homogenized by polytron for ca. 15 sec on ice. Protein was measured (Bradford method, Bio-Rad) and aliquots of 1 mL were prepared and stored at −80° C.
Radioligand binding assays were carried out in a volume of […] (96-well plates) which contained […] of cell membranes, [3H]flumazenil at a concentration of 1 nM for α1, α2, α3 subunits and 0.5 nM for α5 subunits and the test compound in the range of […]. Nonspecific binding was defined by 10^−5 M diazepam and typically represented less than 5% of the total binding. Assays were incubated to equilibrium for 1 hour at 4° C. and harvested onto GF/C uni-filters (Packard) by filtration using a Packard harvester and washing with ice-cold wash buffer (50 mM Tris; pH 7.5). After drying, filter-retained radioactivity was detected by liquid scintillation counting. Ki values were calculated using Excel-Fit (Microsoft) and are the means of two determinations.
Representative test results, obtained by the above described assay measuring binding affinity to HEK293 cells expressing human (h) receptors, are shown in table 1 below.

As to `CC(C)NC(=O)c1ccc(OCc2c(-c3ccc(Cl)cc3)noc2CO)nc1` [Example 19, 6-[3-(4-Chloro-phenyl)-5-hydroxymethyl-isoxazol-4-ylmethoxy]-N-isopropyl-nicotinamide], the Ki was 0.4 nM.

As for `O=C(NCC(F)(F)F)c1ccc(OCc2c(-c3ccc(F)c(F)c3)noc2CO)nc1` [Example 31, 6-[3-(3,4-Difluoro-phenyl)-5-hydroxymethyl-isoxazol-4-ylmethoxy]-N-(2,2,2-trifluoro-ethyl)-nicotinamide], the Ki was 2.7 nM.

For `O=C(c1ccc(OCc2c(-c3ccc(F)cn3)noc2CO)nc1)N1CCS(=O)(=O)CC1` [Example 56, (1,1-Dioxo-1,6-thiomorpholin-4-yl)-{6-[3-(5-fluoro-pyridin-2-yl)-5-hydroxymethyl-isoxazol-4-ylmethoxy]-pyridin-3-yl}-methanone], the Ki was found to be 13.5 nM.

For the molecule `O=C(N[C@@H]1CCC[C@H]1O)c1ccc(OCc2c(-c3ccc(Cl)cc3)noc2CO)nc1` (single isomer, unassigned) [Example 26, 6-[3-(4-Chloro-phenyl)-5-hydroxymethyl-isoxazol-4-ylmethoxy]-N-((1S,2S)-2-hydroxy-cyclopentyl)-nicotinamide or 6-[3-(4-Chloro-phenyl)-5-hydroxymethyl-isoxazol-4-ylmethoxy]-N-((1R,2R)-2-hydroxy-cyclopentyl)-nicotinamide], the Ki was determined as 1.2 nM.

For `CC(C)NC(=O)c1ccc(OCc2c(-c3ccccn3)noc2CO)nc1` [Example 44, 6-(5-Hydroxymethyl-3-pyridin-2-yl-isoxazol-4-ylmethoxy)-N-isopropyl-nicotinamide], the Ki was determined as 0.7 nM.

Turning to `CCCCc1noc(CO)c1COc1ccc(C(=O)NCC(F)(F)F)cn1` [Example 51, 6-(3-Butyl-5-hydroxymethyl-isoxazol-4-ylmethoxy)-N-(2,2,2-trifluoroethyl)-nicotinamide], the Ki was 10.2 nM.

With `C[C@H](NC(=O)c1ccc(OCc2c(-c3ccc(Cl)cc3)noc2CO)nc1)C(F)(F)F` [Example 25, 6-[3-(4-Chloro-phenyl)-5-hydroxymethyl-isoxazol-4-ylmethoxy]-N-([S]-2,2,2-trifluoro-1-methyl-ethyl)-nicotinamide], the Ki turned out to be 1.7 nM.

As for `Cn1cc(NC(=O)c2ccc(OCc3c(-c4ccc(F)c(F)c4)noc3CO)nc2)cn1` [Example 39, 6-[3-(3,4-Difluoro-phenyl)-5-hydroxymethyl-isoxazol-4-ylmethoxy]-N-(1-methyl-1H-pyrazol-4-yl)-nicotinamide], the Ki amounted to 2.1 nM.

Turning to `O=C(NC1CCOCC1)c1ccc(OCc2c(-c3ccccn3)noc2CO)nc1` [Example 47, 6-(5-Hydroxymethyl-3-pyridin-2-yl-isoxazol-4-ylmethoxy)-N-(tetrahydropyran-4-yl)-nicotinamide], the Ki was found to be 1.1 nM.

`CC1(NC(=O)c2ccc(OCc3c(-c4ccc(F)cc4)noc3CO)nc2)COC1` [Example 17, 6-[3-(4-Fluoro-phenyl)-5-hydroxymethyl-isoxazol-4-ylmethoxy]-N-(3-methyl-oxetan-3-yl)-nicotinamide]: the Ki was 1.8 nM.

Consider `CC(C)NC(=O)c1ccc(OCc2c(-c3ccccc3)noc2CO)nc1` [Example 1, 6-(5-Hydroxymethyl-3-phenyl-isoxazol-4-ylmethoxy)-N-isopropyl-nicotinamide], for which the Ki stood at 2.2 nM.

For `O=C(NCC(F)(F)C(F)(F)F)c1ccc(OCc2c(-c3ccc(F)cc3)noc2CO)nc1` [Example 13, 6-[3-(4-Fluoro-phenyl)-5-hydroxymethyl-isoxazol-4-ylmethoxy]-N-(2,2,3,3,3-pentafluoro-propyl)-nicotinamide], the Ki came out at 3.4 nM.

On to `COCCNC(=O)c1ccc(OCc2c(-c3ccc(F)c(F)c3)noc2CO)nc1` [Example 36, 6-[3-(3,4-Difluoro-phenyl)-5-hydroxymethyl-isoxazol-4-ylmethoxy]-N-(2-methoxy-ethyl)-nicotinamide], for which the Ki is 7.7 nM.

Take `O=C(NC1CCOC1)c1ccc(OCc2c(-c3ccccn3)noc2CO)nc1` (centres unmarked) [Example 45, 6-(5-Hydroxymethyl-3-pyridin-2-yl-isoxazol-4-ylmethoxy)-N-(tetrahydrofuran-3-yl)-nicotinamide]: the Ki was 1.8 nM.

In the case of `CC[C@@H](CO)NC(=O)c1ccc(OCc2c(-c3ccc(F)cc3)noc2CO)nc1` [Example 15, 6-[3-(4-Fluoro-phenyl)-5-hydroxymethyl-isoxazol-4-ylmethoxy]-N-((S)-1-hydroxymethyl-propyl)-nicotinamide], the Ki came out at 0.6 nM.

For `O=C(NC1CC1)c1ccc(OCc2c(-c3ccc(F)c(F)c3)noc2CO)nc1` [Example 33, N-Cyclopropyl-6-[3-(3,4-difluoro-phenyl)-5-hydroxymethyl-isoxazol-4-ylmethoxy]-nicotinamide], the Ki turned out to be 3.1 nM.

For the molecule `CC(C)(C)NC(=O)c1ccc(OCc2c(-c3ccc(F)c(F)c3)noc2CO)nc1` [Example 40, N-tert-Butyl-6-[3-(3,4-difluoro-phenyl)-5-hydroxymethyl-isoxazol-4-ylmethoxy]-nicotinamide], the Ki was determined as 11.8 nM.

For the molecule `O=C(N[C@H]1CCC[C@@H]1O)c1ccc(OCc2c(-c3ccc(F)cc3)noc2CO)nc1` (racemic) [Example 10, 6-[3-(4-Fluoro-phenyl)-5-hydroxymethyl-isoxazol-4-ylmethoxy]-N-((1R,2R)-2-hydroxy-cyclopentyl)-nicotinamide or 6-[3-(4-Fluoro-phenyl)-5-hydroxymethyl-isoxazol-4-ylmethoxy]-N-((1S,2S)-2-hydroxy-cyclopentyl)-nicotinamide], the Ki was determined as 1.6 nM.

With `CC(NC(=O)c1ccc(OCc2c(-c3ccc(F)c(F)c3)noc2CO)nc1)C(F)(F)F` (centres unmarked) [Example 32, 6-[3-(3,4-Difluoro-phenyl)-5-hydroxymethyl-isoxazol-4-ylmethoxy]-N-(2,2,2-trifluoro-1-methyl-ethyl)-nicotinamide], the Ki is 1.8 nM.

Consider `CCCCc1noc(CO)c1COc1ccc(C(=O)N2CCC2)cn1` [Example 53, Azetidin-1-yl-[6-(3-Butyl-5-hydroxymethyl-isoxazol-4-ylmethoxy)-pyridin-3-yl]-methanone], for which the Ki came to 51.3 nM.

With `COCCNC(=O)c1ccc(OCc2c(-c3ccc(F)cc3)noc2CO)nc1` [Example 9, 6-[3-(4-Fluoro-phenyl)-5-hydroxymethyl-isoxazol-4-ylmethoxy]-N-(2-methoxy-ethyl)-nicotinamide], the Ki was 4.1 nM.

On to `CN(C)C(=O)c1ccc(OCc2c(-c3ccc(Cl)cc3)noc2CO)nc1` [Example 22, 6-[3-(4-Chloro-phenyl)-5-hydroxymethyl-isoxazol-4-ylmethoxy]-N,N-dimethyl-nicotinamide], for which the Ki worked out at 43.4 nM.

For the molecule `CCCCc1noc(CO)c1COc1ccc(C(=O)NC2(C)COC2)cn1` [Example 50, 6-(3-Butyl-5-hydroxymethyl-isoxazol-4-ylmethoxy)-N-(3-methyloxetan-3-yl)-nicotinamide], the Ki was found to be 8.7 nM.

For the molecule `O=C(N[C@H]1CCC[C@@H]1O)c1ccc(OCc2c(-c3ccc(Cl)cc3)noc2CO)nc1` (single isomer, unassigned) [Example 27, 6-[3-(4-Chloro-phenyl)-5-hydroxymethyl-isoxazol-4-ylmethoxy]-N-([1R,2R]-2-hydroxy-cyclopentyl)-nicotinamide or 6-[3-(4-Chloro-phenyl)-5-hydroxymethyl-isoxazol-4-ylmethoxy]-N-([1S,2S]-2-hydroxy-cyclopentyl)-nicotinamide], the Ki amounted to 0.6 nM.

In the case of `CCCCc1noc(CO)c1COc1ccc(C(=O)N2CCS(=O)(=O)CC2)cn1` [Example 55, [6-(3-Butyl-5-hydroxymethyl-isoxazol-4-ylmethoxy)-pyridin-3-yl]-(1,1-dioxo-thiomorpholin-4-yl)-methanone], the Ki was found to be 50.5 nM.

For the molecule `O=C(NN1CCCC1)c1ccc(OCc2c(-c3ccc(F)c(F)c3)noc2CO)nc1` [Example 42, 6-[3-(3,4-Difluoro-phenyl)-5-hydroxymethyl-isoxazol-4-ylmethoxy]-N-pyrrolidin-1-yl-nicotinamide], the Ki is 4.5 nM.

As to `Cn1cc(NC(=O)c2ccc(OCc3c(-c4ccc(F)cc4)noc3CO)nc2)cn1` [Example 16, 6-[3-(4-Fluoro-phenyl)-5-hydroxymethyl-isoxazol-4-ylmethoxy]-N-(1-methyl-1H-pyrazol-4-yl)-nicotinamide], the Ki was determined as 0.9 nM.

Take `O=C(NCC(F)(F)F)c1ccc(OCc2c(-c3ccc(F)cc3)noc2CO)nc1` [Example 7, 6-[3-(4-Fluoro-phenyl)-5-hydroxymethyl-isoxazol-4-ylmethoxy]-N-(2,2,2-trifluoro-ethyl)-nicotinamide]: the Ki was 1.3 nM.

`O=C(NC1CCOCC1)c1ccc(OCc2c(-c3ccc(F)cc3)noc2CO)nc1` [Example 5, 6-[3-(4-Fluoro-phenyl)-5-hydroxymethyl-isoxazol-4-ylmethoxy]-N-(tetrahydro-pyran-4-yl)-nicotinamide]: the Ki is 1.3 nM.
